Measured values from BigSolDB 2.1.

CP(=O)(c1ccccc1)c1ccccc1
Details | solubility (mole fraction)
in benzene, 288.52 K | 0.0439
in benzene, 293.56 K | 0.0573
in benzene, 298.13 K | 0.0698
in benzene, 303.21 K | 0.0875
in benzene, 308.12 K | 0.102
in benzene, 312.55 K | 0.123
in benzene, 318.04 K | 0.156
in benzene, 323.17 K | 0.183
in ethyl acetate, 293.25 K | 0.0415
in ethyl acetate, 298.46 K | 0.0497
in ethyl acetate, 302.88 K | 0.0618
in ethyl acetate, 307.97 K | 0.0744
in ethyl acetate, 313.22 K | 0.0885
in ethyl acetate, 317.25 K | 0.104
in ethyl acetate, 322.14 K | 0.128
in ethyl acetate, 326.93 K | 0.15
in ethylbenzene, 293.35 K | 0.0183
in ethylbenzene, 298.04 K | 0.0224
in ethylbenzene, 303.12 K | 0.0304
in ethylbenzene, 308.33 K | 0.0393
in ethylbenzene, 312.8 K | 0.0464
in ethylbenzene, 317.51 K | 0.061
in ethylbenzene, 321.25 K | 0.0719
in ethylbenzene, 326.39 K | 0.0876
in m-xylene, 293.75 K | 0.0129
in m-xylene, 298.16 K | 0.0167
in m-xylene, 303.32 K | 0.0216
in m-xylene, 307.41 K | 0.0258
in m-xylene, 313 K | 0.0332
in m-xylene, 317.53 K | 0.0398
in m-xylene, 320.55 K | 0.0453
in m-xylene, 326.39 K | 0.0614
in o-xylene, 293.35 K | 0.0281
in o-xylene, 298.08 K | 0.0343
in o-xylene, 303.11 K | 0.0406
in o-xylene, 308.23 K | 0.0454
in o-xylene, 313.09 K | 0.0525
in o-xylene, 317.05 K | 0.0603
in o-xylene, 321.94 K | 0.071
in o-xylene, 328.07 K | 0.0821
in p-xylene, 293.65 K | 0.0131
in p-xylene, 298.19 K | 0.0175
in p-xylene, 303.31 K | 0.0219
in p-xylene, 308.42 K | 0.03
in p-xylene, 313.11 K | 0.036
in p-xylene, 317.38 K | 0.0442
in p-xylene, 320.55 K | 0.0539
in p-xylene, 326.44 K | 0.0679
in toluene, 293.35 K | 0.0227
in toluene, 298.16 K | 0.0287
in toluene, 303.08 K | 0.0386
in toluene, 307.11 K | 0.0498
in toluene, 312.12 K | 0.065
in toluene, 316.4 K | 0.0798
in toluene, 320.95 K | 0.0979
in toluene, 326.54 K | 0.135
